Test systems include 786-0 renal; A498 renal; CAKI-1 renal; HOP-62 NSCLC; HS 578T breast; IGROV1 ovarian; MCF7 breast; MDA-N; OVCAR-8 ovarian; RPMI-8226 leukemia; RXF 393 renal; SK-MEL-2 melanoma; SR leukemia; UACC-257 melanoma; UACC-62 melanoma; OVCAR-4 ovarian; T-47D breast; MALME-3M melanoma.
Experiment in all cases: NCI tumour cell line growth inhibition, 48 h

Each structure is given as a SMILES string.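 How tested: cells in 96-well plates exposed to compound for 48 hours at five concentrations. Definition used: TGI = concentration required for complete inhibition of growth.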 *1 amine or outer side, *2 acyl side, *3 side chain or, on linkers, in order; H or OH if unused. Where a SMILES comes first, the peptide text is derived from it. Bridges are numbered along the chain shown (N, C = ends). Roman numbers before positions name the chains, in order. [ ]: non-standard residue; d: D form. Actinocin(9to1) = Cc1c2oc3c(C)ccc(C(=O)[*:1])c3nc-2c(C(=O)[*:2])c(N)c1=O; NMeV = CN[CH](C(=O)O)C(C)C; Sar = CNCC(=O)O

As for `N#Cc1nc(-c2cnccn2)oc1N`, the TGI with 786-0 renal, in the assay with A498 renal, in the assay on CAKI-1 renal, in the assay with HOP-62 NSCLC, in the assay with HS 578T breast and in the assay on IGROV1 ovarian was over 100 µM each time. For the same compound, the TGI with MCF7 breast, in the assay with MDA-N, in the assay on OVCAR-8 ovarian, in the assay with RPMI-8226 leukemia, in the assay with RXF 393 renal and in the assay on SK-MEL-2 melanoma was over 100 µM in each case. For the same compound, the TGI with SR leukemia, in the assay with UACC-257 melanoma and in the assay on UACC-62 melanoma was over 100 µM each time.

Turning to `CC1(C)[C@@H](Cn2cc(I)c(=O)[nH]c2=O)CC[C@@]1(C)CO`, the TGI with 786-0 renal, in the assay with A498 renal, with CAKI-1 renal, in the assay with HOP-62 NSCLC, with HS 578T breast and in the assay on MDA-N was over 100 µM throughout. Also, the TGI in the assay with OVCAR-4 ovarian, in the assay on RXF 393 renal, with SK-MEL-2 melanoma, with T-47D breast, in the assay with UACC-257 melanoma and in the assay with UACC-62 melanoma was over 100 µM in each case.

Regarding `Nc1nc(Cl)cc(OCC2(CO)CC=CC2)n1`, the TGI in the assay on 786-0 renal, in the assay with A498 renal, in the assay on HOP-62 NSCLC, in the assay with HS 578T breast, in the assay with IGROV1 ovarian and in the assay with MALME-3M melanoma was over 100 µM in each case. The TGI in the assay on MCF7 breast, in the assay on MDA-N, in the assay with OVCAR-4 ovarian, in the assay with OVCAR-8 ovarian, with RPMI-8226 leukemia and with RXF 393 renal was over 100 µM each time. Besides, the TGI in the assay on SR leukemia and with UACC-257 melanoma was over 100 µM throughout.

Consider `Cc1ccc(S[C@@H](C)[C@@](O)(CF)CN(Cc2ccccc2)C(=O)C(F)(F)F)cc1`, for which the TGI in the assay on 786-0 renal was 35.4 µM; with A498 renal, 29.7 µM; in the assay on CAKI-1 renal it was 99.7 µM; with HS 578T breast, 61.7 µM; in the assay with IGROV1 ovarian, over 100 µM; with MALME-3M melanoma, 44.2 µM. The TGI in the assay on MCF7 breast is 58.2 µM; in the assay on MDA-N, 62.7 µM; in the assay on OVCAR-4 ovarian, 34.2 µM; with OVCAR-8 ovarian, over 100 µM; in the assay with SK-MEL-2 melanoma, 36.5 µM; in the assay on T-47D breast, 68.5 µM. The TGI turned out to be 56.8 µM in the assay on UACC-257 melanoma and 34.8 µM with UACC-62 melanoma.

As to `CC(C)C(NC(=O)Oc1ccccc1)C(=O)NC1c2c(Br)sc(Br)c2C(=O)C1O` (stereo unspecified), the TGI was over 25 µM in the assay with 786-0 renal; over 25 µM with A498 renal; 14.1 µM with CAKI-1 renal; over 25 µM in the assay on HS 578T breast; 8.11 µM in the assay on IGROV1 ovarian; 15.5 µM in the assay with MALME-3M melanoma. Also, the TGI in the assay with MCF7 breast is over 25 µM; in the assay with MDA-N, over 25 µM; with OVCAR-4 ovarian, 6.41 µM; in the assay with OVCAR-8 ovarian, 9.15 µM; in the assay with RXF 393 renal, 7.25 µM; in the assay on SK-MEL-2 melanoma, 17.7 µM. Besides, the TGI with T-47D breast came out at 16.7 µM; in the assay with UACC-257 melanoma it was 8.66 µM; with UACC-62 melanoma, 8.08 µM.

In the case of `C/C(=N\NC(N)=S)c1ccc2c(c1)Sc1ccccc1O2`, the TGI was 25.7 µM in the assay with 786-0 renal; 8.63 µM with A498 renal; 4.37 µM in the assay on CAKI-1 renal; 29 µM with HOP-62 NSCLC; over 100 µM in the assay with HS 578T breast; over 100 µM in the assay on MALME-3M melanoma. For the same compound, the TGI with MDA-N is 2.31 µM; with OVCAR-4 ovarian, 57.1 µM; in the assay with OVCAR-8 ovarian it was 7.16 µM; in the assay with RPMI-8226 leukemia it was 16.4 µM; with SK-MEL-2 melanoma, 6.99 µM; in the assay on SR leukemia, over 100 µM. For the same compound, the TGI in the assay with T-47D breast was over 100 µM; with UACC-257 melanoma it was over 100 µM; in the assay on UACC-62 melanoma, 12.3 µM.

For `Cc1[nH]c(=O)nc2sc(=NC3CCCCC3)n(C3CCCCC3)c(=O)c12`, the TGI with 786-0 renal, with A498 renal, with CAKI-1 renal, in the assay on HOP-62 NSCLC, with IGROV1 ovarian and in the assay on MALME-3M melanoma was over 100 µM throughout. The TGI in the assay on MCF7 breast, with MDA-N, with OVCAR-4 ovarian, in the assay with OVCAR-8 ovarian, in the assay on RPMI-8226 leukemia and in the assay with SK-MEL-2 melanoma was over 100 µM throughout. Further, the TGI with T-47D breast, in the assay on UACC-257 melanoma and in the assay with UACC-62 melanoma was over 100 µM throughout.

As for `CCOC(=O)C(=[N+]=[N-])C(=O)CN1C(=O)c2ccccc2C1=O`, the TGI with 786-0 renal, with A498 renal, with CAKI-1 renal, with HOP-62 NSCLC, in the assay with HS 578T breast and with IGROV1 ovarian was over 100 µM throughout. Further, the TGI in the assay with MCF7 breast, in the assay on MDA-N, with OVCAR-4 ovarian, in the assay with OVCAR-8 ovarian, in the assay with RXF 393 renal and in the assay with SK-MEL-2 melanoma was over 100 µM in each case. The TGI with T-47D breast, in the assay on UACC-257 melanoma and in the assay with UACC-62 melanoma was over 100 µM in each case.

Regarding `Cc1c2oc3c(C)ccc(C(=O)NC4C(=O)NC(C(C)C)C(=O)N5CCCC5C(=O)N(C)CC(=O)N(C)C(C(C)C)C(=O)OC4C)c3nc-2c(C(=O)NC2C(=O)NC(C(C)C)C(=O)N3CCCC3C(=O)N(C)CC(=O)N(C)C(C(C)C)C(=O)OC2C)c(N)c1=O` (stereo unspecified) (I: TVP[Sar][NMeV] / II: TVP[Sar][NMeV]; ester I:1-I:C, II:1-II:C; linker I:N-II:N via Actinocin(9to1); configuration not given here), the TGI is over 1 µM in the assay on 786-0 renal; 0.0152 µM with A498 renal; over 0.316 µM with CAKI-1 renal; 0.00696 µM in the assay with HOP-62 NSCLC; 0.00439 µM in the assay on HS 578T breast; over 0.396 µM with IGROV1 ovarian. In addition, the TGI in the assay with MALME-3M melanoma was 0.0145 µM; in the assay with MCF7 breast it was 0.00342 µM; in the assay with MDA-N it was 0.0094 µM; in the assay on OVCAR-4 ovarian, 0.00187 µM; in the assay on OVCAR-8 ovarian it was 0.00772 µM; in the assay on RPMI-8226 leukemia it was over 1 µM. The TGI in the assay on RXF 393 renal is 0.00653 µM; with SK-MEL-2 melanoma, 0.00295 µM; with UACC-257 melanoma, 0.0231 µM; in the assay with UACC-62 melanoma it was 0.00192 µM.

The values above are taken from PubChem BioAssay (NCI).
